{
  "source": "patent US20080078408A1",
  "about": "“URETHRAL CONDOMS AND LIQUID FEMALE CONDOMS” (priority 2005, published 2008)",
  "key": {"sperms": {"tested_on": "sperms", "test": "Spermicidal test: semen on a slide glass mixed with a drop of liquid, observed with an optical microscope", "assay_type": "cell-based", "source_text": "The present inventor discovered a surprising fact for the first time that distilled water is an excellent spermicide.\nEXPERIMENT 1: The fact that distilled water is an excellent spermicide was proven experimentally as follows: (1) One drop of semen was spread on a slide glass with a cotton swab and active movements of sperms were confirmed. (2) Upon mixing with a drop of distilled water, 100% of sperms stood still immediately. […] All sperms might be dead by explosive expansion of the sperm cell. While not wishing to be bound by any particular theory, the inventor believes that this is due to a lot of water smeared into the cell due to the difference in osmotic pressure between the cell and distilled water.\n(3) Upon decreasing the viscosity by adding several drops of saline solution, the sperms regained their original activity.\nEXPERIMENT 4: The fact that polymer solutions made from distilled water and water-soluble polymers exterminated sperms was verified experimentally as follows: (1) One drop of semen was spread on a slide glass with a cotton swab and active movements of sperms were confirmed. (2) Upon mixing with a drop of water-soluble polymer solution, all sperms came to a standstill without any movement in their heads or tails. […]"}, "[1]": {"test": "Physical blocking wall test: pigments and dye rubbed on coated, incised swine vaginal segments, then rinsed and scrubbed", "source_text": "EXPERIMENT 6: Two pigments whose particle size distributions correspond to sizes of STD-causing germs including HIV (diameter=125 nm) were chosen. The blue pigment (PIG-1) had the particle size distribution of 100-20,000 nm, while the violet pigment (PIG-2) had the particle size distribution of 30-500 nm. For the purpose of comparison, a blue dye ink (DYE) (molecular diameter=2.7 nm) was used as well. Instead of the human vagina, the swine vagina was used. […] Then, the vaginal segments in the left column were wetted with water, while those in the second, the third, the fourth and the fifth column were applied with corn syrup (SYRUP, 55% maltose), a composition made from polyvinyl alcohol (PVA-gel), a composition made from sodium carboxymethyl cellulose (SCMC-gel) and a composition made from hydroxyethyl cellulose (HEC-gel), respectively, as shown in FIG. 2B. After that, the blue pigment (PIG-1) was applied on the vaginal segments in the upper row, while the violet pigment (PIG-2) and the blue dye ink (DYE) were applied on the vaginal segments in the middle and the lower row, respectively, as shown in FIG. 2C. The pigments and the dye ink applied on the vaginal segments were rubbed 50 times violently with the index finger being pressed in an attempt to simulate the frictional movement of coitus. Thereafter that, they were scrubbed off and cleansed out with the vaginal scrubbing sponge of the present invention as shown in FIG. 6."}},
  "data": [
    {"smiles": "O", "note": "[distilled water]", "values": [
      {"measurement": "sperm activity upon later addition of saline solution", "setting": "sperms; saline solution added after mixing with the liquid", "result": "failed to show any activity"},
      {"measurement": "sperms stood still immediately upon mixing", "setting": "sperms; semen on slide glass mixed with drop(s) of the liquid", "result": 100, "unit": "%"}
    ]},
    {"smiles": "O", "note": "[water]", "values": [
      {"measurement": "pigments left on incisions", "setting": "[1]; incisions, after rinsing and scrubbing", "result": "remained heavily"},
      {"measurement": "blue dye ink (molecular diameter 2.7 nm) left after being rinsed and scrubbed", "setting": "[1]; intact vaginal surfaces and incisions", "result": "remained heavily"},
      {"measurement": "pigments (PIG-1, PIG-2; 30-20,000 nm) left on vaginal segments after rinsing", "setting": "[1]; intact vaginal surfaces and incisions, rubbed 50 times, rinsed with running water, then scrubbed", "result": "still remained"}
    ]}
  ]
}
